In patent publication US9695155B2, “Herbicidal substituted pyrimidinyloxy benzene compounds” (E. I. DU PONT DE NEMOURS AND COMPANY, priority 2013, dated 2017):

Legend:
sedge, umbrella = assay: Test C flooded paddy test; format: in vivo, Cyperus difformis; details: Flood, scale 0 to 100 (0 no effect, 100 complete control), 13 to 15 days
How it was run: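 In-water treatment: compound dosed into 3 cm flood over soil, water level unchanged throughout. Controls run alongside; visual assessment at day 13–15.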

velvetleaf = assay: Test E preemergence; format: in vivo, Abutilon theophrasti; details: for Velvetleaf plant response rating: scale 0 to 100 (0 no effect, 100 complete control); for Plant response rating, Velvetleaf: scale 0 to 100, 0 no effect, 100 complete control
How it was run: (§1)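 Test chemicals formulated in a non-phytotoxic solvent mixture containing a surfactant were applied preemergence to seeds in silt loam soil or postemergence to plants at the 1- to 4-leaf stage in potting mix. After 14 to 21 days in a greenhouse, injury was visually rated against controls on a 0-100 scale (0 = no effect, 100 = complete control).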

large (Lg) crabgrass = assay: Test E preemergence; format: in vivo, Digitaria sanguinalis; details: for Crabgrass, Large plant response rating: scale 0 to 100 (0 no effect, 100 complete control); for Plant response rating, Crabgrass, Large: scale 0 to 100, 0 no effect, 100 complete control
How it was run: as §1

fall panicum = assay: Test E preemergence; format: in vivo, Panicum dichotomiflorum; details: for Panicum, Fall plant response rating: scale 0 to 100 (0 no effect, 100 complete control); for Plant response rating, Panicum, Fall: scale 0 to 100, 0 no effect, 100 complete control
How it was run: as §1

green foxtail = assay: Test E preemergence; format: in vivo, Setaria viridis; details: for Foxtail, Green plant response rating: scale 0 to 100 (0 no effect, 100 complete control); for Plant response rating, Foxtail, Green: scale 0 to 100, 0 no effect, 100 complete control
How it was run: as §1

johnsongrass = assay: Test E preemergence; format: in vivo, Sorghum halepense; details: for Johnsongrass plant response rating: scale 0 to 100 (0 no effect, 100 complete control); for Plant response rating, Johnsongrass: scale 0 to 100, 0 no effect, 100 complete control
How it was run: as §1

ragweed = assay: Test E preemergence; format: in vivo, Ambrosia elatior; details: for Ragweed plant response rating: scale 0 to 100 (0 no effect, 100 complete control); for Plant response rating, Ragweed: scale 0 to 100, 0 no effect, 100 complete control
How it was run: as §1

arrowleaf sida = assay: Test E preemergence; format: in vivo, Sida rhombifolia; details: for Arrowleaf Sida plant response rating: scale 0 to 100 (0 no effect, 100 complete control); for Plant response rating, Arrowleaf Sida: scale 0 to 100, 0 no effect, 100 complete control
How it was run: as §1

dayflower = assay: Test E preemergence; format: in vivo, Commelina virginica; details: for Dayflower, VA plant response rating: scale 0 to 100 (0 no effect, 100 complete control); for Plant response rating, Dayflower, VA: scale 0 to 100, 0 no effect, 100 complete control
How it was run: as §1

morningglory = assay: Test E preemergence; format: in vivo, Ipomoea coccinea; details: for Morningglory plant response rating: scale 0 to 100 (0 no effect, 100 complete control); for Plant response rating, Morningglory: scale 0 to 100, 0 no effect, 100 complete control
How it was run: as §1

nightshade = assay: Test E preemergence; format: in vivo, Solanum ptycanthum; details: for Nightshade plant response rating: scale 0 to 100 (0 no effect, 100 complete control); for Plant response rating, Nightshade: scale 0 to 100, 0 no effect, 100 complete control
How it was run: as §1

hairy beggarticks = assay: Test E preemergence; format: in vivo, Bidens pilosa; details: for Beggarticks plant response rating: scale 0 to 100 (0 no effect, 100 complete control); for Plant response rating, Beggarticks: scale 0 to 100, 0 no effect, 100 complete control
How it was run: as §1

N#Cc1cccc(Oc2ncc(Br)cn2)c1-n1cc(C(F)(F)F)cn1 [Compound 59, 3-[(5-bromo-2-pyrimidinyl)oxy]-2-[4-(trifluoromethyl)-1H-pyrazol-1-yl]benzonitrile]
Plant response rating, Sedge, Umbrella (sedge, umbrella; 31 g ai/ha): 60
Plant response rating, Sedge, Umbrella (sedge, umbrella; 62 g ai/ha): 80
Plant response rating, Sedge, Umbrella (sedge, umbrella; 125 g ai/ha): 90
Plant response rating, Sedge, Umbrella (sedge, umbrella; 250 g ai/ha): 95
Velvetleaf plant response rating (velvetleaf; 16 g ai/ha): 0
Velvetleaf plant response rating (velvetleaf; 31 g ai/ha): 25
Velvetleaf plant response rating (velvetleaf; 62 g ai/ha): 75
Plant response rating, Velvetleaf (velvetleaf; 125 g ai/ha): 100
Plant response rating, Velvetleaf (velvetleaf; 250 g ai/ha): 100
Crabgrass, Large plant response rating (large (Lg) crabgrass; 16 g ai/ha): 5
Crabgrass, Large plant response rating (large (Lg) crabgrass; 31 g ai/ha): 95
Crabgrass, Large plant response rating (large (Lg) crabgrass; 62 g ai/ha): 100
Plant response rating, Crabgrass, Large (large (Lg) crabgrass; 125 g ai/ha): 100
Plant response rating, Crabgrass, Large (large (Lg) crabgrass; 250 g ai/ha): 100
Panicum, Fall plant response rating (fall panicum; 16 g ai/ha): 50
Panicum, Fall plant response rating (fall panicum; 31 g ai/ha): 75
Panicum, Fall plant response rating (fall panicum; 62 g ai/ha): 98
Plant response rating, Panicum, Fall (fall panicum; 125 g ai/ha): 100
Plant response rating, Panicum, Fall (fall panicum; 250 g ai/ha): 100
Foxtail, Green plant response rating (green foxtail; 16 g ai/ha): 0
Foxtail, Green plant response rating (green foxtail; 31 g ai/ha): 60
Foxtail, Green plant response rating (green foxtail; 62 g ai/ha): 100
Plant response rating, Foxtail, Green (green foxtail; 125 g ai/ha): 100
Plant response rating, Foxtail, Green (green foxtail; 250 g ai/ha): 100
Johnsongrass plant response rating (johnsongrass; 16 g ai/ha): 0
Johnsongrass plant response rating (johnsongrass; 31 g ai/ha): 0
Johnsongrass plant response rating (johnsongrass; 62 g ai/ha): 60
Plant response rating, Johnsongrass (johnsongrass; 125 g ai/ha): 75
Plant response rating, Johnsongrass (johnsongrass; 250 g ai/ha): 100
Ragweed plant response rating (ragweed; 16 g ai/ha): 0
Ragweed plant response rating (ragweed; 31 g ai/ha): 0
Ragweed plant response rating (ragweed; 62 g ai/ha): 0
Plant response rating, Ragweed (ragweed; 125 g ai/ha): 5
Plant response rating, Ragweed (ragweed; 250 g ai/ha): 50
Arrowleaf Sida plant response rating (arrowleaf sida; 16 g ai/ha, preemergence): 50
Arrowleaf Sida plant response rating (arrowleaf sida; 31 g ai/ha, preemergence): 50
Plant response rating, Arrowleaf Sida (arrowleaf sida; Preemergence, 62 g ai/ha): 75
Plant response rating, Arrowleaf Sida (arrowleaf sida; preemergence, 125 g ai/ha): 100
Plant response rating, Arrowleaf Sida (arrowleaf sida; preemergence, 250 g ai/ha): 100
Dayflower, VA plant response rating (dayflower; 16 g ai/ha): 0
Dayflower, VA plant response rating (dayflower; 31 g ai/ha): 5
Dayflower, VA plant response rating (dayflower; 62 g ai/ha): 25
Plant response rating, Dayflower, VA (dayflower; 125 g ai/ha): 85
Plant response rating, Dayflower, VA (dayflower; 250 g ai/ha): 98
Morningglory plant response rating (morningglory; 16 g ai/ha): 0
Morningglory plant response rating (morningglory; 31 g ai/ha): 15
Morningglory plant response rating (morningglory; 62 g ai/ha): 65
Plant response rating, Morningglory (morningglory; 125 g ai/ha): 75
Plant response rating, Morningglory (morningglory; 250 g ai/ha): 100
Nightshade plant response rating (nightshade; 16 g ai/ha): 0
Nightshade plant response rating (nightshade; 31 g ai/ha): 50
Nightshade plant response rating (nightshade; 62 g ai/ha): 90
Plant response rating, Nightshade (nightshade; 125 g ai/ha): 100
Plant response rating, Nightshade (nightshade; 250 g ai/ha): 100
Beggarticks plant response rating (hairy beggarticks; 16 g ai/ha, preemergence): 0
Beggarticks plant response rating (hairy beggarticks; 31 g ai/ha, preemergence): 0
Plant response rating, Beggarticks (hairy beggarticks; Preemergence, 62 g ai/ha): 0
Plant response rating, Beggarticks (hairy beggarticks; preemergence, 125 g ai/ha): 0
Plant response rating, Beggarticks (hairy beggarticks; preemergence, 250 g ai/ha): 25
